From patent US20070282004A1, “Use of a Cyclopentenone Prostaglandin for Delaying for the Onset and/or Preventing the Continuation of Labour” (Imperial College Innovations Limited, priority 2003, published 2007)
Residues, ends and D or L forms follow the SMILES beside them. *: point of attachment. Cbz = O=C(OCc1ccccc1)*

Assays:
NF-κB [1] = experiment: Western immunoblot of p65, p50, IκB in myometrial cell extracts; format: cell-based, human; conditions: myometrial cells, IL-1β 15 min
Method: (§1) Western immunoblots of nuclear or cytosolic protein extracts from (A) myometrial cells, (B) L− amnion cells, and (C) L+ amnion cells treated with 15dPGJ2 or vehicle for 2 h±IL-1β stimulation (15 min). Blots probed with antibodies against p65, p50 or IκBα.
Western immunoblots of nuclear or cytosolic protein extracts from myometrial cells treated with PGA1 or vehicle for 2 h followed by IL-1β stimulation (15 min). Blots probed with antibodies against p65 or IκBa.
Western immunoblots of cytosolic extracts from myometrial cells (A) treated with 15dPGJ2 for 2h±IL1b for 15 min; probed for IKK, and (B) treated with […] 15dPGJ2, […] MG132 or vehicle for 2 h, ±IL-1β for 15 min; probed for IκBα.
(A) NF-κB-DNA binding was measured by EMSA in nuclear protein extracts from myometrial cells pre-treated with vehicle, 15d-PGJ2 or PGA1 for 2 h, followed by stimulation with IL-1β (1 ng/ml) for 15 min. Antibodies against p50 and p65 were used for supershift analysis. (B) Myometrial cells were transiently transfected with a NF-κB-LUC reporter and a β-gal reporter plasmid, pre-treated with vehicle or PGA1 for 2 h, and stimulated with IL-1β (1 ng/ml) for 6 h. Luciferase activity was normalized for β-gal reporter readout. Values are presented as the mean±SEM obtained for each treatment done in triplicate. Western blot analysis of nuclear p65 and p50 expression in myometrial cells treated with (C) PGA1 or (D) 15d-PGJ2 for 2 h, followed by stimulation with IL-1β (1 ng/ml) for 15 min. (E) Western blot analysis of whole cell lysates from myometrial cells treated with 15d-PGJ2 or 9,10-dihydro-15d-PGJ2 for 2 h, followed by stimulation with IL-1β (1 ng/ml) for 15 min. Membranes were probed with antibodies against p65 and Ser 536-phosphorylated p65.
(§2) Myometrial tissue was collected at term from the upper margin of uterine incision at the time of lower segment caesarean section either prior to the onset of labour (L−) or […] (L+). L+ samples were collected by Dr Mark Johnson and Dr S Soorrana at Chelsea & Westminster Hospital. Myometrial tissue was dissected, rinsed in PBS, and digested in serum-free DMEM containing 15 mg/ml collagenase 1A (Sigma), 15 mg/ml collagenase X, and 50 mg/ml bovine serum albumin for 45 min at 37° C. The cell suspension was filtered through a cell strainer, centrifuged at 400 g for 5 min, and the pellet re-suspended and plated out in DMEM, 10% FCS (Helena BioScience), 1% L-glutainine, 1% penicillin-streptomycin. Cells were used between passage numbers 1-4.
(§3) Nuclear and cytosolic protein extracts were obtained from cultured amnion cells as described by Schreiber et al (1989). For nuclear/cytosolic fractionation, confluent cell monolayers were scraped and lysed using a buffer containing 10 mM HEPES, 10 mM KCl, 0.1 mM EDTA, 0.1 mM EGTA, 2 mM DTT, 1% (v/v) NP-40 and complete protease inhibitor tablets (CPIs, Roche), diluted to manufacturer's instructions. Cell lysates were incubated on ice for 10 min and NP-40 added to a final concentration of 1% (v/v). Lysates were vortexed for 10 secs and centrifuged for 30 secs at 4° C., 12000 g. The supernatants were retained as the cytosolic protein extracts. The pellets were resuspended in buffer containing 10 mM HEPES, 10 mM KCl, 0.1 mM EDTA, 0.1 mM EGTA, 2 mM DTT, 400 mM NaCl, 1% NP-40 (v/v) and CPIs. Samples were shaken vigorously for 15 min in an ice bath. The nuclear protein extracts were obtained in the supernatant following a 5 min centrifugation at 4° C., 12000 g.
Protein samples (20-70 μg) were mixed with Laemmli sample buffer (1:1) containing β-mercaptoethanol (5%), and boiled for 5 min. Proteins were then separated by SDS-PAGE (12-14% gels) and transferred onto PVDF membrane (Amersham Pharmacia Biotech). The membranes were blocked overnight in 5% non-fat milk prepared in PBS-T buffer, at 4° C. The blots were incubated with the primary antibody in 1% non-fat milk in PBS-T buffer for 1 h, and washed three times (10 min each) in PBS-T with vigorous shaking. […]

PPAR-γ = target: T1, PPAR-γ (Homo sapiens, UniProt P37231); conditions: as stated from the literature; cited from earlier work
T1 sequence (P37231 1-505): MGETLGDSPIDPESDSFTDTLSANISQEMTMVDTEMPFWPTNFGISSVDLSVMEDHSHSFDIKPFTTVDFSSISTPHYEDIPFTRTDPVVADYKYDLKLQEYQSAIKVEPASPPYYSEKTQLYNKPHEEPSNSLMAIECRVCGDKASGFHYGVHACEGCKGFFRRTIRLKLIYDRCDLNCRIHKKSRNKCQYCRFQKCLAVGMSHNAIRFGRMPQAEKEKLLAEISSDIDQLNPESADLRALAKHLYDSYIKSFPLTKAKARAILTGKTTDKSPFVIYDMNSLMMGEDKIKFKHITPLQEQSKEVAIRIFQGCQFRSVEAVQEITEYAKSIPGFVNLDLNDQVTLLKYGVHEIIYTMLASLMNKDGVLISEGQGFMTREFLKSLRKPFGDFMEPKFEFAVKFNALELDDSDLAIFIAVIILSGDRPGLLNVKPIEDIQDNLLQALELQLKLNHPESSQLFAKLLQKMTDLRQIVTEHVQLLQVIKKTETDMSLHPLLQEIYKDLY

NF-κB [2] = target: T2, NF-κB (Homo sapiens, UniProt P19838+Q04206); experiment: EMSA of NF-κB DNA binding in nuclear extracts of treated myometrial cells; format: cell-based; conditions: myometrial cells; for Stimulation of NF-κB activity / induction of NFκB DNA binding by the compound alone: no cytokine; for IL-1β-induced NF-κB DNA binding (EMSA): then IL-1β 15 min
T2 construct: nuclear protein extracts from myometrial cells; endogenous in cells; host or cells: primary human myometrial cells (term, passage 1-4)
T2 sequence (Q04206 whole entry): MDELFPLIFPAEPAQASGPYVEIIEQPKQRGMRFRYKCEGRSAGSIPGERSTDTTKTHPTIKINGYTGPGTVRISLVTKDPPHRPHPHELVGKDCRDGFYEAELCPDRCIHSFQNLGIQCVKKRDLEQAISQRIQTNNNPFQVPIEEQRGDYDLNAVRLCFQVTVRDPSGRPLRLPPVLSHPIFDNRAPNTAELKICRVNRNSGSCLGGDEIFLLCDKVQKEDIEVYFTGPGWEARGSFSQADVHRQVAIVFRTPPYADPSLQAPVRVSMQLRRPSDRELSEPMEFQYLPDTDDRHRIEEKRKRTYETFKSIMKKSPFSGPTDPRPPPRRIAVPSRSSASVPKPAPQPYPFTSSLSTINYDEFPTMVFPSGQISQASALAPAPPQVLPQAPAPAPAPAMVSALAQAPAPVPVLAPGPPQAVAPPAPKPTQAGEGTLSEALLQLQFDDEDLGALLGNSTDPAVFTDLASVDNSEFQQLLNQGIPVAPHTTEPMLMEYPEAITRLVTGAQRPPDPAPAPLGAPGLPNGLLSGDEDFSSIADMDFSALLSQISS
T2 sequence (P19838 1-433 limits assumed): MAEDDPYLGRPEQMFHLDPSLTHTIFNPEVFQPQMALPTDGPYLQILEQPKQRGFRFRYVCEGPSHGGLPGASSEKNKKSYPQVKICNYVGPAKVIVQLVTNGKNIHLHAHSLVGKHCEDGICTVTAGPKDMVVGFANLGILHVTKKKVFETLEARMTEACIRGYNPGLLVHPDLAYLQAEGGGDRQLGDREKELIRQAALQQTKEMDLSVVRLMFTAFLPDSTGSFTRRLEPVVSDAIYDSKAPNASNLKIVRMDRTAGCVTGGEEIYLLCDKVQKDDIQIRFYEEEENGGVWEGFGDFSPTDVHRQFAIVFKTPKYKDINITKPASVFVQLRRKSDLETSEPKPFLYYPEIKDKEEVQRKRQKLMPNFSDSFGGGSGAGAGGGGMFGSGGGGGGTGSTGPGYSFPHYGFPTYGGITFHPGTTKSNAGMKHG
Method: as §2, §3
(§4) Sense and antisense strands (175 nmole/ml each) were incubated in annealing buffer (10 mM Tris-HCl pH7.5, 100 mM NaCl, 1 mM EDTA) for 10 min at 65° C., and allowed to cool at room temperature for 2 h. 3.5 pmole double-stranded oligonucleotides were end-labelled with 0.37 MBq ^32P(γATP) by incubating for 30 min at 37° C. with T4 polynucleotide kinase. Labelled oligonucleotides were recovered by centrifugation at 3000 rpm for 2 min through MicroSpin G-25 or G-50 sephadex columns (Amersham Biosciences).
(§5) 3-5 μg protein extracts were incubated on ice for 1 h with non-radiolabelled non-specific oligonucleotide (poly(dI-dC) or Oct-1) in a binding buffer (20% (v/V) glycerol, 5 mM MgCl2, 2 mM EDTA, 50 mM Tris-HCl pH7.5, 250 mM NaCl, 2 mM DTT), followed by a 45 min incubation with 0.035 pmole ^32P(γ(ATP)-end labelled oligonucleotide probes:
(§6) Oct-1 or SP-1 consensus sequences were used as a controls for a NF-κB-specific effect. The resulting protein/DNA complexes were separated in a 4% acrylamide gel, the gel dried under vacuum at 80° C. and exposed to X-ray film. For supershift analysis, samples were incubated with 2 μg antibodies for 30 min on ice prior to incubation with oligonucleotides. Non-radio-labelled oligonucleotides were used at 100-fold molar excess for specific and non-specific competition for DNA binding. Reagents for EMSA were obtained from Promega Life Sciences, Delta House, Chilworth Research Centre, Southampton SO16 7NS, United Kingdom.

NF-κB [3] = target: T2, NF-κB; experiment: EMSA of NF-κB DNA binding in nuclear extracts of treated amnion cells; format: cell-based
Method: (§7) Placentae were obtained from patients at term either at elective Caesarean section prior to labour (L−) or following spontaneous labour onset and vaginal delivery (L+). Amnion cells were prepared as described in Bennett et al., (1989). Briefly, the amnion was separated from the placenta, washed 3× in PBS, cut into strips, and incubated in 0.5 mM EDTA in PBS for 15 min. The strips were washed in PBS 2× and digested with 2.5 mg/ml dispase in serum-free DMEM for 35 min at 37° C. The amnion was then shaken vigorously in DMEM, 10% FCS to dissociate the cells, the remaining strips discarded, and the cell suspension pelleted at 175 g for 10 min and cultured in DMEM, 10% FCS (Sigma), 1% L-glutamine, 1% penicillin-streptomycin.
as §3, §4, §5, §6

NF-κB [4] = experiment: Western immunoblot of p65, p50, IκB in amnion cell extracts; format: cell-based, human; conditions: L−, L+ amnion cells, treated 2 h, IL-1β 15 min
Method: as §1, §7, §3
Protein samples (20-70 μg) were mixed with Laemmli sample buffer (1:1) containing β-mercaptoethanol (5%), and boiled for 5 min. Proteins were then separated by SDS-PAGE (12-14% gels) and transferred onto PVDF membrane (Amersham Pharmacia Biotech). The membranes were blocked overnight in 5% non-fat milk prepared in PBS-T buffer, at 4° C. The blots were incubated with the primary antibody in 1% non-fat milk in PBS-T buffer for 1 h, and washed three times (10 min each) in PBS-T with vigorous shaking. The blots were then incubated with HRP-conjugated secondary antibody (diluted 1:2000 in 1% non-fat milk in PBS-T buffer) for 1 h and washed three times (10 min each) in PBS-T. Signal detection was achieved using enhanced chemi-luminescence (ECL plus system, Amersham Pharmacia Biotech) according to manufacturer's instructions.
30-50 μg protein extracts were subjected to SDS-PAGE and Western immuno-blotting. Secondary antibodies were IgG-HRP and ECL Plus detection kit (Amersham Pharmacia Biotech, Amersham Place, Little Chalfont, Bucks, HP7 9NA) was used for visualisation.

NF-κB [5] = experiment: NF-κB-dependent luciferase reporter (κB.BG.Luc) in myometrial cells; format: cell-based, human; conditions: treated 2 h, IL-1β 1 ng/ml 6 h
Method: Myometrial cells were transiently transfected with the NFκB-dependent reporter construct κB.BG.Luc, treated with 15dPGJ2 or vehicle for 2 h, ±IL-1β (1 ng/ml) for 6 h. […] Values are normalised for b-gal reporter activity. (NS=nonstimulated).
Myometrial cells were transfected with […] κB.BG.Luc reporter and 200 ng PPAR-γ expression vector and treated with 15d-PGJ2 for 2 h followed by IL-1β (1 ng/ml) for 6 h. Values are normalised for β-galactosidase reporter activity. (NS=nonstimulated).
as §2
pGL3.6κB.BG.luc: a NF-κB-dependent reporter construct with 6 copies of the NF-κB binding site.
Cells were co-transfected with the renilla vector pRL-CMV or β-galactosidase vector pCH110 as internal controls for transfection efficiencies.

[6] = system: contractions of pre-term labour; conditions: people; cited from earlier work
[7] = system: ductus arteriosus, fetal urine output; conditions: in vivo; cited from earlier work
NF-κB [8] = experiment: NF-κB-dependent luciferase reporter (κB.BG.Luc) in myometrial cells; format: cell-based, human; conditions: 200 ng PPAR-γ expression vector, 10 mM troglitazone 7 h, IL-1β 17 h

In the case of `CCCCCC=CC=C1CCC(=O)C1CC=CCCCC(=O)O` (centres unmarked) [9,10-dihydro-15d-PGJ2, 9,10-di-hydro-15-deoxy-Δ^12,14-Prostaglandin J2, reference compound], the “Reproduction of the effects of 15d-PGJ2 on NF-κB (incl. Ser 536-phosphorylated p65)” value (NF-κB [1]; 2 h, similar in amnion epithelial cells) is given as “could not reproduce the effects” and the “PPAR agonist / ligand activity” value (PPAR-γ) is given as “retains PPARγ agonist activity”.
In the case of `CCCCC(C)(C)[C@H](O)/C=C/[C@H]1[C@H](O)CC(=O)[C@@H]1C/C=C\CCCC(=O)O` [16,16-Dimethyl-PGE2, reference compound], the “Synergy with IL-1β or TNFα on NF-κB activity” value (NF-κB [2]) is reported as “nor did it synergise”, the “Stimulation of NF-κB activity / induction of NFκB DNA binding by the compound alone” value (NF-κB [2]) is reported as “neither did it stimulate” and the “IL-1β-induced NF-κB DNA binding (EMSA)” value (NF-κB [2]; treated 2 h) is reported as “did not inhibit”. The “IL-1β-induced NF-κB DNA binding (EMSA)” value (NF-κB [3]; L− and L+ amnion cells, treated 2 h, then IL-1β 15 min) was “did not inhibit”, the “IL-1β-induced p65 nuclear translocation” value (NF-κB [1]; treated 2 h) was “did not inhibit” and the “IL-1β-induced p65 nuclear translocation” value (NF-κB [4]) was “did not inhibit”.
With `CN(CCOc1ccc(C[C@H](Nc2ccccc2C(=O)c2ccccc2)C(=O)O)cc1)c1ccccn1` [GW1929, reference compound] the “IL-1β-induced NF-κB DNA binding (EMSA)” value (NF-κB [2]; treated 2 h) was “failed to inhibit” and the “IL-1β-induced NF-κB transcriptional activity (κB.BG.Luc reporter)” value (NF-κB [5]) was “does not inhibit”.
In the case of `COc1ccc2c(c1)c(CC(=O)O)c(C)n2C(=O)c1ccc(Cl)cc1` [Indomethacin], the Tocolytic efficacy [6] is listed as “effective in preventing the contractions”.
For `CC(C)C[C@@H](C=O)NC(=O)[C@H](CC(C)C)NC(=O)[C@H](CC(C)C)NC(=O)OCc1ccccc1` [MG132, reference compound] (Cbz-Leu-Leu-Leu-aldehyde), the “Accumulation of phosphorylated IκBα” value (NF-κB [1]; 2 h) was “resulted in the accumulation”.
In the case of `CCCCC[C@H](O)/C=C/[C@H]1[C@H](O)CC(=O)[C@@H]1C/C=C\CCCC(=O)O` [PGE2, prostaglandin E2, reference compound], the “Stimulation of NF-κB activity / induction of NFκB DNA binding by the compound alone” value (NF-κB [2]) is reported as “does not induce”, the “TNFα- and IL-1β-induced NFκB activation (EMSA, nuclear p65)” value (NF-κB [2]; treated 2 h, TNFα or IL-1β 15 min) is reported as “does not inhibit” and the “Induction of NFκB DNA binding by the compound alone” value (NF-κB [3]; L− amnion cells, no cytokine) is reported as “does not induce”. The “PPAR agonist / ligand activity” value (PPAR-γ) was “does not activate PPAR-γ”.
For `CC1=C(CC(=O)O)c2cc(F)ccc2/C1=C\c1ccc([S+](C)[O-])cc1` (centres unmarked) [Sulindac], the Tocolytic efficacy [6] is given as “equally good”, the “Effect on ductal patency” value [7] is given as “minimal effect” and the Fetal urine output [7] is given as “smaller reduction”.
With `Cc1c(C)c2c(c(C)c1O)CCC(C)(COc1ccc(CC3SC(=O)NC3=O)cc1)O2` (centres unmarked) [troglitazone] the “NF-κB-dependent reporter in PPARγ-transfected cells” value (NF-κB [8]) was “does not inhibit”.
